Measured values: ChEMBL document CHEMBL1201862, “PubChem BioAssay data set” (2004)
Activity calls are given as the source filed them.

What was measured:
[1] = target: T1, Replicative DNA helicase DnaB (Mycobacterium tuberculosis, UniProt P9WMR3); assay: DnaB Intein secondary assay Measured in Biochemical System Using Plate Reader - 2047-04_Inhibitor_Dose_DryPowder_Activity. [Related pubchem assays (depositor defined):AID2223]
T1 sequence (P9WMR3 whole entry): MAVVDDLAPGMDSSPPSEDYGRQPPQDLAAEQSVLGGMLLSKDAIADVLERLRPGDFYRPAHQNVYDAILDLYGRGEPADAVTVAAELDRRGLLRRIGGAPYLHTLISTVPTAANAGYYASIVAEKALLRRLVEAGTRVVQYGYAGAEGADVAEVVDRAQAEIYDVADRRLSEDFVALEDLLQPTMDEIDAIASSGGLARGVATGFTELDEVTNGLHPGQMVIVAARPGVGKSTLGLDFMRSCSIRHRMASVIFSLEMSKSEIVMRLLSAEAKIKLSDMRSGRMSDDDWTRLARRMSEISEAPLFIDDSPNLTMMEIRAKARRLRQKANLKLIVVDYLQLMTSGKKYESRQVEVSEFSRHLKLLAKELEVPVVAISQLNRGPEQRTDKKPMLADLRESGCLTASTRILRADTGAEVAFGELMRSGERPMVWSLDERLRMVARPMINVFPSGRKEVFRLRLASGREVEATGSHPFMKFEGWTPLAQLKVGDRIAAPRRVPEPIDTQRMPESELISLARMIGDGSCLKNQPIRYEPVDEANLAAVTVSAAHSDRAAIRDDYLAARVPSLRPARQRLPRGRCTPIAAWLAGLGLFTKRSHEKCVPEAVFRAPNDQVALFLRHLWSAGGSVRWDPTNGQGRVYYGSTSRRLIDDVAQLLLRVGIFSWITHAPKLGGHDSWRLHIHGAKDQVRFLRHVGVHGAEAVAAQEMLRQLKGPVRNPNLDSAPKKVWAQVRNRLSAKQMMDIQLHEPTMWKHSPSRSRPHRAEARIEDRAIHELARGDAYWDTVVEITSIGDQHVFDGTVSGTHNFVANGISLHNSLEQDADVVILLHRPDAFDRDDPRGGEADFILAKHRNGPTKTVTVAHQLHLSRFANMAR

[2] = target: T2, Tyrosine-protein phosphatase non-receptor type 7 (Homo sapiens, UniProt P35236); assay type: functional
T2 sequence (P35236 whole entry): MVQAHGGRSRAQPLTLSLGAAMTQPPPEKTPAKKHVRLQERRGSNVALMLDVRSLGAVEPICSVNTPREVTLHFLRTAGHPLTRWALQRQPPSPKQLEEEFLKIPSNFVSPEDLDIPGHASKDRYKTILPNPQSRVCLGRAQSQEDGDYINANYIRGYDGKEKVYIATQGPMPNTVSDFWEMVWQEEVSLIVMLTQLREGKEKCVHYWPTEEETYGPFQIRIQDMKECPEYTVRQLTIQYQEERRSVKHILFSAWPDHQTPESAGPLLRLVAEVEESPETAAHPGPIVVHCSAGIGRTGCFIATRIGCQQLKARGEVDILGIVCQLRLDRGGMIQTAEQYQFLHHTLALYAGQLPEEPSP

[3] = C. albicans growth with fluconazole, confirmation, fluorescence, retest (AID 2467); assay type: functional, cell-based
[4] = target: T3, Sentrin-specific protease 6 (Homo sapiens, UniProt Q9GZR1); assay type: functional;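 further: Luminescence-based dose-response confirmatory assay of SENP6 inhibition, following up an ultra-high-throughput screen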
T3 sequence (Q9GZR1 whole entry): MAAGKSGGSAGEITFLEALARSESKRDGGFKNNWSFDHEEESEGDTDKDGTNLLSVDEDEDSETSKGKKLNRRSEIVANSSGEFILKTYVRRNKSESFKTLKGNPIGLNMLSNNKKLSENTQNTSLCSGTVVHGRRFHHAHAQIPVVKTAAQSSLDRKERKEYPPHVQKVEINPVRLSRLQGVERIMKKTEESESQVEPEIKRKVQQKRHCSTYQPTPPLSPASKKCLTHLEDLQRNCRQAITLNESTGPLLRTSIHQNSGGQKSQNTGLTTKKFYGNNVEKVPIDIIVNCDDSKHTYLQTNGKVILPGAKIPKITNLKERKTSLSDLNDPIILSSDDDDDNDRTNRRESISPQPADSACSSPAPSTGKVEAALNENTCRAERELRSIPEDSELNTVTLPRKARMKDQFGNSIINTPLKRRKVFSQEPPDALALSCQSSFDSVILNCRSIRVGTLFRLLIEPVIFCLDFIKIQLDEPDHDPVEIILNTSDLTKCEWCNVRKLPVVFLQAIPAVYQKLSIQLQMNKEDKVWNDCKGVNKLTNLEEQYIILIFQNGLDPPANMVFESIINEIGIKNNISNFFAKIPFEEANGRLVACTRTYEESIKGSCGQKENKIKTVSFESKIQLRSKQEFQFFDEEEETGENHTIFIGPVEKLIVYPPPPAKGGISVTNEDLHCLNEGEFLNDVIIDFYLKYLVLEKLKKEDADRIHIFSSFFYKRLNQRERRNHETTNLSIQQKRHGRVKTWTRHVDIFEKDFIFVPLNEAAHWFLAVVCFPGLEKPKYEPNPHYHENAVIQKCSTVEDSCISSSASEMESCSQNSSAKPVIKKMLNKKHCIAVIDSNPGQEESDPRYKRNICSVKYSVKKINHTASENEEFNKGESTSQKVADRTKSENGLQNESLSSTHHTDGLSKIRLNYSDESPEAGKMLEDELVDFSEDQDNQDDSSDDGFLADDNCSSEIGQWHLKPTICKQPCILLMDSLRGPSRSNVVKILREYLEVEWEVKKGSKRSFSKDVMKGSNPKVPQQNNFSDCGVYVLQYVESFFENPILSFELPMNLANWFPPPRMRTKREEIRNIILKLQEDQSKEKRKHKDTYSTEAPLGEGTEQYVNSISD

[5] = target: Insulin-like growth factor 1 receptor (Homo sapiens, UniProt P08069); assay: Navigating the Kinome. Panel member name: IGF1R; assay type: functional
Insulin-like growth factor 1 receptor, sequence (P08069 31-736 limits assumed): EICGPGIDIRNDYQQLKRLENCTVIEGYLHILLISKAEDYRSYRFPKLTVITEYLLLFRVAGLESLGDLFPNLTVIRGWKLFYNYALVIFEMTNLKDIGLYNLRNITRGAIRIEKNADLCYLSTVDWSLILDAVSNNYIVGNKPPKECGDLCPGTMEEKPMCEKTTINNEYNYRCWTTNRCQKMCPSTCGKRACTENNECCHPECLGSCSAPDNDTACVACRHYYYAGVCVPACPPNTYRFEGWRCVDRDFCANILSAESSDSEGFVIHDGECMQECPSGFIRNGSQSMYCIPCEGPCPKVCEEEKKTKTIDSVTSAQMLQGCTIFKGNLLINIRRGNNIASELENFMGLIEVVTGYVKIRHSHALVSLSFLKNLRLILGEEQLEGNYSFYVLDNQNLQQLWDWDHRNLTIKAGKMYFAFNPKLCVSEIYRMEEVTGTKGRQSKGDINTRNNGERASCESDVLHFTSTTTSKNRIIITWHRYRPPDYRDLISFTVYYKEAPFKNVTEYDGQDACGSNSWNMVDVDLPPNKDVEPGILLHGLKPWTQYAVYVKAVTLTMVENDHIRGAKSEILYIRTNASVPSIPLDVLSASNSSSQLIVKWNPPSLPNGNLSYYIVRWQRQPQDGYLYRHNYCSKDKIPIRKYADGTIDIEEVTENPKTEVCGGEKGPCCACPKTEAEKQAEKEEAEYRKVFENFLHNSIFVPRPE
Insulin-like growth factor 1 receptor, sequence (P08069 741-1367 limits assumed): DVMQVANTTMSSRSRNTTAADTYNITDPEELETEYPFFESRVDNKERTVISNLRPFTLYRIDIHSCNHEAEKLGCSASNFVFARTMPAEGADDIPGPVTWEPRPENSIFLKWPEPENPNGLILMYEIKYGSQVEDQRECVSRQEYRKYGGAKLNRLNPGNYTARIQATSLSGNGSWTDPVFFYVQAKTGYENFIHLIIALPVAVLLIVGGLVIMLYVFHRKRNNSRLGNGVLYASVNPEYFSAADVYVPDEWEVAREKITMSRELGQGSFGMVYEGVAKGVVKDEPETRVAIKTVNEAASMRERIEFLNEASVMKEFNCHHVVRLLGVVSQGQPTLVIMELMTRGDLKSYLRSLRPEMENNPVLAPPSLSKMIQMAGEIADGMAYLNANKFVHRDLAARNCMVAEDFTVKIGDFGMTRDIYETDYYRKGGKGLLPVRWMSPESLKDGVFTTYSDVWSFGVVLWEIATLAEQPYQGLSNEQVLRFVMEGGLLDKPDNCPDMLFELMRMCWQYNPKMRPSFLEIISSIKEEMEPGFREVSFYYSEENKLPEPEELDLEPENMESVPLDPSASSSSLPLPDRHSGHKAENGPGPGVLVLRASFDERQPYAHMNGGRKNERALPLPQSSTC

[6] = target: Proto-oncogene tyrosine-protein kinase Src (Homo sapiens, UniProt P12931); assay type: functional;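 further: SRC entry within a kinome-wide kinase profiling panel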
Proto-oncogene tyrosine-protein kinase Src, sequence (P12931 2-536 limits assumed): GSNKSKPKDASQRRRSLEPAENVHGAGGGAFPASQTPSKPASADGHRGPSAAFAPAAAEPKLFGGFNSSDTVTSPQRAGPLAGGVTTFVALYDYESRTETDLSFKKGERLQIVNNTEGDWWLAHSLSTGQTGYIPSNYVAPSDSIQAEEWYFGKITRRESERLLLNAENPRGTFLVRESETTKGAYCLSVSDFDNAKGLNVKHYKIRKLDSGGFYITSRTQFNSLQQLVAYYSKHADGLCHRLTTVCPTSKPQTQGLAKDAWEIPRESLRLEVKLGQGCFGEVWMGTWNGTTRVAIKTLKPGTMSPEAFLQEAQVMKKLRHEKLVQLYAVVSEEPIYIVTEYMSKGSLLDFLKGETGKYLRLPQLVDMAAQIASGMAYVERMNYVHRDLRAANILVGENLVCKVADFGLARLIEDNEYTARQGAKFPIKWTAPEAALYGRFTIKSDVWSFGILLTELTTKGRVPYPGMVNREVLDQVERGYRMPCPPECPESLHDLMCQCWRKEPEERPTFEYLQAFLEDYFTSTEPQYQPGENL

[7] = target: Glycogen synthase kinase-3 beta (Homo sapiens, UniProt P49841); assay type: functional;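 further: value comes from a broad kinome profiling panel, with GSK3B as the panel member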
Glycogen synthase kinase-3 beta, sequence (P49841 whole entry): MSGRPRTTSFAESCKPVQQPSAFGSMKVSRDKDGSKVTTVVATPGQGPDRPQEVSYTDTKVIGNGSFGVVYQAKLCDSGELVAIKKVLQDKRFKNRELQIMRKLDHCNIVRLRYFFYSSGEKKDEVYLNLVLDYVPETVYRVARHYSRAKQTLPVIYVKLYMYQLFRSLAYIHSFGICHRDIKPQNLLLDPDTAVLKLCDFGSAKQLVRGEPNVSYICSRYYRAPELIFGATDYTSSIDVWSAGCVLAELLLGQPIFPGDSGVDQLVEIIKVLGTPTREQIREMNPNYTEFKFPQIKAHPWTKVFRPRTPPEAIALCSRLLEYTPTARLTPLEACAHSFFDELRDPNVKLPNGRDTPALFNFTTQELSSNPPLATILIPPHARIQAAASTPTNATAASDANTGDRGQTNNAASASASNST

CCn1nc(/C=C/c2ccccc2)nc2c(=O)n(C)c(=O)nc1-2
AC50 [1]: 0.184 µM (active)
IC50 [2]: 10.3 µM (active)
EC50 [3]: 0.63 µM (active)

CC(C)c1ccc(-c2nnn(CCC(=O)O)n2)cc1
IC50 [4]: 9.32 µM (active)

COc1cc2c(cc1Nc1nc(Nc3cccc(F)c3C(N)=O)c3cc[nH]c3n1)N(C(=O)CN(C)C)CC2
Ki [5]: 0.002 µM (active)
Ki [6]: > 2 µM (inactive)
Ki [7]: > 3.98 µM (inactive)
